Reference: PubChem BioAssay AID1963433 (Molecular Pharmacology Branch, DTP, NCI, 2024)
Values joined by “and” are separate entries in the source; they are usually repeats but may differ in a detail not shown here. Equal values may be shown once.

Tested on: 772245-204-R-J1-PDC complex spheroid growth
Assay: Anticancer human tumor 772245-204-R-J1-PDC patient-derived rhabdomyosarcoma cell line growth inhibition [Asc]
Conditions: for viability, T/C: stronger effect = lower value
Method: Multicellular complex tumor spheroid response to apoptosis pathway targeting inhibitors Alrizomadlin, Pelcitoclax, and Dasminapant in combination with a variety of drugs and investigational agents in selected tumor cell lines
The MDM2 inhibitor alrizomadlin, the Bcl-2/Bcl-xL inhibitor pelcitoclax, and the IAPs inhibitor dasminapant were evaluated both individually and in combination with standard of care and investigational anticancer small molecules within a complex spheroid model of solid tumors. . Complex spheroids include a stromal component modeled by human endothelial cells (HUVEC) and fibroblasts modeled by human mesenchymal stem cells (MSCs). The concentration ranges selected for each drug and investigational agent were based upon clinically achievable concentrations if the clinical Cmax of the agent was known.
Compounds. The drugs and investigational agents: alrizomadlin (APG-115; NSC831270), pelcitoclax (APG-1252; NSC835773), dasminapant (APG-1387;NSC834197), TAK-243 (NSC785004), copanlisib (NSC809693), olaparib (NSC753686), talazoparib (NSC767125), cobimetinib (NSC 768068), eltanexor (KPT-8602, NSC 794443), abemaciclib (NSC 768073), sotorasib (NSC818433), adagrasib (NSC 831453), MRTX-1133 (NSC 836407), Iadademestat (ORY1001, NSC 806812), and RMC-4630 (NSC839698), were obtained from the NCI Developmental Therapeutics Program Chemical Repository. The FDA-approved anticancer drug set is available from the Developmental Therapeutics Program at https://dtp.cancer.gov/organization/dscb/obtaining/available plates.htm. […] The stock solutions were prepared in dimethyl sulfoxide (DMSO, Sigma-Aldrich, St. Louis, MO, cat. D2650) at 800-fold the tested concentration and stored at -70 degrees C prior to their use. All drugs and investigational agents were tested over a range starting from a high concentration at or near the clinical Cmax and decreasing in half-log increments. If the clinical Cmax for an agent had not been determined, the highest concentration tested was 10 microM.
The patient-derived cancer (PDC) cell lines include five colon adenocarcinomas: 186277-243-T-J2-PDC, 616215-338-R-J1-PDC, 439559-082-T-J2-PDC, 463943-066-T-J2-PDC, and 519858-162-T-J1-PDC; three pancreatic carcinomas: 323965-272-R-J2-PDC, 521955-158-R6-J3-PDC, and 521955-158-R2-J5-PDC; two uterine sarcomas: 327498-152-R-J2-PDC and 993429-296-R-J1-PDC; two rhabdomyosarcomas: 755483-174-R-J1-PDC and 772245-204-R-J1-PDC; two soft tissue sarcomas: 126254-015-R-J1-PDC and 494315-158-R-J1-PDC; two malignant fibrous histiocytomas: 317291-083-R-J1-PDC and 596521-263-R-J1-PDC; two breast carcinomas: 171881-019-R-J1-PDC and 885512-296-R-J2-PDC; and one ovarian carcinoma: 6556581-035-R-J-PDC were obtained from the NCI PDMR, (https://pdmr.cancer.gov). The established cell lines HSSY-2 synovial sarcoma (RRID:CVCL 8719), SYO-1 synovial sarcoma (RRID:CVCL_7146), MPNST malignant peripheral neural sheath tumor were obtained from the Sloan Kettering Institute. The following established cell lines were purchased from the American Type Culture Collection (ATCC, Manassas, VA), Sor the received from the NCI repository:, PANC-1 pancreatic carcinoma (CRL-1469, RRID:CVCL_0480), OVCAR-5 ovarian carcinoma (RRID:CVCL_1628), OVCAR-8 ovarian carcinoma (RRID:CVCL_1629), , MCF-7 breast carcinoma (CRL-12584, RRID:CVCL_0031), MDA-MB-231 breast carcinoma (CRL-12532, RRID:CVCL_0062), NCI-H1876 small cell lung carcinoma (CRL-5902, RRID:CVCL_1503), NCI-H510A small cell lung carcinoma (HTB-184, RRID:CVCL_1565), NCI-H1417 (CRL-5869, RRID:CVCL_1469), and NCI-H196 small cell lung carcinoma (CRL-5823, RRID:CVCL_1509). Dr. Peter Houghton (Greehey Children's Cancer Research Institute, University of Texas Health Science Center, San Antonio, TX) provided Rh-18 rhabdomyosarcoma (RRID:CVCL_1659). Pooled donor human umbilical vein endothelial cells (HUVEC, Lonza, cat. CC-2519) and human mesenchymal stem cells (hMSC, Lonza, cat. PT-2501) were purchased from Lonza (Walkersville, MD).
Cell Culture. […]
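Note: compound exposure lasted seven days.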
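Throughout, for viability, T/C: 100% = DMSO vehicle control viability.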

SMILES: NC(=O)C(=Cn1cnc(-c2cc(C(F)(F)F)cc(C(F)(F)F)c2)n1)c1cncnc1 + CCN1C(C(=O)NC23CCC(C(=O)O)(CC2)CC3)C(c2cccc(Cl)c2F)C2(C(=O)Nc3cc(Cl)ccc32)C12CCCCC2
- IC50 (curve of first compound, second compound 0.03 µM): 75.5 nM
- IC50 (curve of first compound, second compound 0.0949 µM): 27.3 nM
- IC50 (curve of first compound, second compound 0.3 µM): 47.3 nM
- IC50 (curve of first compound, second compound 0.949 µM): 28.2 nM
- IC50 (curve of first compound, second compound 3 µM): 14.5 nM
- viability, T/C (second compound 0.03 µM, first compound 0.000949 µM): 88.9%
- viability, T/C (second compound 0.03 µM, first compound 0.003 µM): 96.5%
- viability, T/C (second compound 0.03 µM, first compound 0.00949 µM): 97.1%
- viability, T/C (second compound 0.03 µM, first compound 0.03 µM): 92.4%
- viability, T/C (second compound 0.03 µM, first compound 0.0949 µM): 38.5%
- viability, T/C (second compound 0.03 µM, first compound 0.3 µM): 40.5%
- viability, T/C (second compound 0.0949 µM, first compound 0.000949 µM): 103%
- viability, T/C (second compound 0.0949 µM, first compound 0.003 µM): 93.1%
- viability, T/C (second compound 0.0949 µM, first compound 0.00949 µM): 88.5%
- viability, T/C (second compound 0.0949 µM, first compound 0.03 µM): 44.5%
- viability, T/C (second compound 0.0949 µM, first compound 0.0949 µM): 37.2%
- viability, T/C (second compound 0.0949 µM, first compound 0.3 µM): 22.6%
- viability, T/C (second compound 0.3 µM, first compound 0.000949 µM): 94.7%
- viability, T/C (second compound 0.3 µM, first compound 0.003 µM): 105%
- viability, T/C (second compound 0.3 µM, first compound 0.00949 µM): 85.2%
- viability, T/C (second compound 0.3 µM, first compound 0.03 µM): 62.8%
- viability, T/C (second compound 0.3 µM, first compound 0.0949 µM): 31.1%
- viability, T/C (second compound 0.3 µM, first compound 0.3 µM): 30.4%
- viability, T/C (second compound 0.949 µM, first compound 0.000949 µM): 92.8%
- viability, T/C (second compound 0.949 µM, first compound 0.003 µM): 88.8%
- viability, T/C (second compound 0.949 µM, first compound 0.00949 µM): 84.7%
- viability, T/C (second compound 0.949 µM, first compound 0.03 µM): 46.4%
- viability, T/C (second compound 0.949 µM, first compound 0.0949 µM): 28.8%
- viability, T/C (second compound 0.949 µM, first compound 0.3 µM): 18.1%
- viability, T/C (second compound 3 µM, first compound 0.000949 µM): 69.9%
- viability, T/C (second compound 3 µM, first compound 0.003 µM): 66.9%
- viability, T/C (second compound 3 µM, first compound 0.00949 µM): 69.5%
- viability, T/C (second compound 3 µM, first compound 0.03 µM): 17.7%
- viability, T/C (second compound 3 µM, first compound 0.0949 µM): 10.8%
- viability, T/C (second compound 3 µM, first compound 0.3 µM): 15.9%

SMILES: NC(=O)C(=Cn1cnc(-c2cc(C(F)(F)F)cc(C(F)(F)F)c2)n1)c1cncnc1
- viability, T/C (compound 0.000949 µM): 92.1% and 79.1% and 89.4%
- viability, T/C (compound 0.003 µM): 94.4% and 79.8% and 83.2%
- viability, T/C (compound 0.00949 µM): 89.3% and 86.5% and 108%
- viability, T/C (compound 0.03 µM): 69.9% and 55.1% and 101%
- viability, T/C (compound 0.0949 µM): 49.8% and 38% and 82.4%
- viability, T/C (compound 0.3 µM): 49.2% and 25.1% and 59.7%
- IC50 (curve of compound): 136 nM and 41.3 nM and > 300 nM

SMILES: O=C(c1ccc(F)c(F)c1Nc1ccc(I)cc1F)N1CC(O)([C@@H]2CCCCN2)C1 + Cc1c(S(C)(=O)=O)c(-c2cc(F)cc(N3CCN(c4ccc(NS(=O)(=O)c5ccc(NC(CCN6CCC(C(=O)OCCCP(=O)(O)O)CC6)CSc6ccccc6)c(S(=O)(=O)C(F)(F)F)c5)cc4)CC3)c2)c(-c2ccc(Cl)cc2)n1C(C)C
- IC50 (curve of first compound, second compound 0.1 µM): 673 nM
- IC50 (curve of first compound, second compound 0.316 µM): 364 nM
- IC50 (curve of first compound, second compound 1 µM): 350 nM
- IC50 (curve of first compound, second compound 3.16 µM): 224 nM
- IC50 (curve of first compound, second compound 10 µM): 342 nM
- viability, T/C (second compound 0.1 µM, first compound 0.00316 µM): 85.4%
- viability, T/C (second compound 0.1 µM, first compound 0.01 µM): 85.7%
- viability, T/C (second compound 0.1 µM, first compound 0.0316 µM): 85%
- viability, T/C (second compound 0.1 µM, first compound 0.1 µM): 72.4%
- viability, T/C (second compound 0.1 µM, first compound 0.316 µM): 80.5%
- viability, T/C (second compound 0.1 µM, first compound 1 µM): 34.2%
- viability, T/C (second compound 0.316 µM, first compound 0.00316 µM): 76.3%
- viability, T/C (second compound 0.316 µM, first compound 0.01 µM): 76.7%
- viability, T/C (second compound 0.316 µM, first compound 0.0316 µM): 64.4%
- viability, T/C (second compound 0.316 µM, first compound 0.1 µM): 67.5%
- viability, T/C (second compound 0.316 µM, first compound 0.316 µM): 55.9%
- viability, T/C (second compound 0.316 µM, first compound 1 µM): 19.9%
- viability, T/C (second compound 1 µM, first compound 0.00316 µM): 61.1%
- viability, T/C (second compound 1 µM, first compound 0.01 µM): 66%
- viability, T/C (second compound 1 µM, first compound 0.0316 µM): 66.4%
- viability, T/C (second compound 1 µM, first compound 0.1 µM): 69%
- viability, T/C (second compound 1 µM, first compound 0.316 µM): 50.8%
- viability, T/C (second compound 1 µM, first compound 1 µM): 13.4%
- viability, T/C (second compound 3.16 µM, first compound 0.00316 µM): 57.1%
- viability, T/C (second compound 3.16 µM, first compound 0.01 µM): 60.7%
- viability, T/C (second compound 3.16 µM, first compound 0.0316 µM): 56.6%
- viability, T/C (second compound 3.16 µM, first compound 0.1 µM): 59.7%
- viability, T/C (second compound 3.16 µM, first compound 0.316 µM): 45.9%
- viability, T/C (second compound 3.16 µM, first compound 1 µM): 8.31%
- viability, T/C (second compound 10 µM, first compound 0.00316 µM): 40.2%
- viability, T/C (second compound 10 µM, first compound 0.01 µM): 44.9%
- viability, T/C (second compound 10 µM, first compound 0.0316 µM): 57.1%
- viability, T/C (second compound 10 µM, first compound 0.1 µM): 78.8%
- viability, T/C (second compound 10 µM, first compound 0.316 µM): 52.2%
- viability, T/C (second compound 10 µM, first compound 1 µM): 4.51%
